Results as given in patent publication US20260199484A1, “PROTAC DEGRADERS OF MLLT1 AND/OR MLLT3” (DARK BLUE THERAPEUTICS LTD, priority 2024, published 2026).

Molecular target: T1, MLLT1 (Homo sapiens, UniProt Q03111)
T1 sequence (Q03111 1-559): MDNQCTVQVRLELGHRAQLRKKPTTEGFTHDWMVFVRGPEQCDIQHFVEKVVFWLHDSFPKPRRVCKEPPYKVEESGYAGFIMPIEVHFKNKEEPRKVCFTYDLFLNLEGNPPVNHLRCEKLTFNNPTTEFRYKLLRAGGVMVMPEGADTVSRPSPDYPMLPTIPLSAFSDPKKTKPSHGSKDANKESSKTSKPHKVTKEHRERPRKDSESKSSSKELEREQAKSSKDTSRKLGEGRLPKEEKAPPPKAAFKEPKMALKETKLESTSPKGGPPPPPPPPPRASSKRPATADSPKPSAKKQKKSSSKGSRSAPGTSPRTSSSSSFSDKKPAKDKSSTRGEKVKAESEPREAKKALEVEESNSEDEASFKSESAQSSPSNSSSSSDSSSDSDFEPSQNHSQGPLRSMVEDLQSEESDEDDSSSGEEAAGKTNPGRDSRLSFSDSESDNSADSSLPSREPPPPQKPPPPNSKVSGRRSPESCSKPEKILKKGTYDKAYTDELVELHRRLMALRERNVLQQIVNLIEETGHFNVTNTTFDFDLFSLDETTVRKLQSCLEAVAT
Experiment: MLLT1 degradation assay in MV4-11 cells (JESS, 24 h)
Format: cell-based
Parameters: endogenous in cells; host or cells: MV4-11 (ATCC CRL-9591)
Conditions: vs DMSO control
Experimental: MLLT1 degradation efficacy of compounds was tested in an automated chemiluminescent detection system (JESS, Cat #004-650). MV4-11 (#CRL-9591, ATCC) cells were seeded at a density of 1.2 million cells/well in a non-treated 6-well cell culture plate in 2.4 mL of complete medium (IMDM+10% FBS+1× Penicillin-Streptomycin). 10 mM DMSO stocks were prepared, and cells were treated with three concentrations of test compounds viz. 1000, 100 and 10 nM at a final DMSO concentration of 0.1% and incubated for 24 h at 37° C., 5% CO2. Post incubation, cells were centrifuged, washed with HBSS and lysed in 70 μL of RIPA buffer supplemented with Protease inhibitors (sc-24948; Santa Cruz). Subsequently, protein estimation was done using BCA protein assay kit (23225; Pierce). 4 ug protein lysate (4 uL of 1 ug/uL lysate) was loaded into each well of the JESS cartridge (SM-W001; Bio-techne) and the JESS run was performed using 1:900 dilution of anti-human MLLT1 antibody (14893; Cell signaling technology) and 1:1200 dilution of anti-human GAPDH antibody (2118; Cell signaling technology) with anti-rabbit secondary detection module (DM-001; Bio-Techne). Post run, data were analysed using “Compass for SW” software for chemiluminescent detection. The peak area for each band was used for the calculation of MLLT1 degradation with respect to DMSO control. Data is shown as “MLLT1% degradation”. • Category A: A≥75% degradation • Category B: 50%≤B<75% degradation • Category C: 25%≤C<50% degradation • Category D: D<25% degradation

Compound: Cc1nn(CCCCCCCC#Cc2cccc3c2CN(C2CCC(=O)NC2=O)C3=O)c2cc(C(=O)Nc3cc4[nH]c([C@H]5CC6(CC6)CN5C)cc4cn3)ccc12 (stereo in doubt) [Example 56, 1-(9-(2-(2,6-dioxopiperidin-3-yl)-1-oxoisoindolin-4-yl)non-8-yn-1-yl)-3-methyl-N-(2-((rel-R)-5-methyl-5-azaspiro[2.4]heptan-6-yl)-1H-pyrrolo[3,2-c]pyridin-6-yl)-1H-indazole-6-carboxamide]
- MLLT1% Degradation @ 0.01 μM: A (Category A: A≥75% degradation)
- MLLT1% Degradation @ 0.1 μM: A (Category A: A≥75% degradation)
- MLLT1% Degradation @ 1 μM: A (Category A: A≥75% degradation)

Compound: Cc1nn(CC2CCN(c3cccc4c3CN(C3CCC(=O)NC3=O)C4=O)CC2)c2cc(C(=O)Nc3cc4[nH]c([C@H]5CCCN5C)cc4cn3)ccc12 (stereo in doubt) [Example 108, 1-((1-(2-((rel-R)-2,6-dioxopiperidin-3-yl)-1-oxoisoindolin-4-yl)piperidin-4-yl)methyl)-3-methyl-N-(2-((R)-1-methylpyrrolidin-2-yl)-1H-pyrrolo[3,2-c]pyridin-6-yl)-1H-indazole-6-carboxamide]
- MLLT1% Degradation @ 0.01 μM: B (Category B: 50%≤B<75% degradation)
- MLLT1% Degradation @ 0.1 μM: A (Category A: A≥75% degradation)
- MLLT1% Degradation @ 1 μM: A (Category A: A≥75% degradation)

Compound: Cc1nn(CCCCCCCCNc2cccc3c2C(=O)N(C2CCC(=O)NC2=O)C3=O)c2cc(C(=O)Nc3cc4[nH]c([C@@H]5CCCN5C)cc4cn3)ccc12 (stereo partly drawn) [Example 4, 1-(8-{[2-(2,6-dioxopiperidin-3-yl)-1,3-dioxoisoindol-4-yl]amino}octyl)-3-methyl-N-{2-[(2S)-1-methylpyrrolidin-2-yl]-1H-pyrrolo[3,2-c]pyridin-6-yl}indazole-6-carboxamide]
- MLLT1% Degradation @ 0.01 μM: D (Category D: D<25% degradation)
- MLLT1% Degradation @ 0.1 μM: D (Category D: D<25% degradation)
- MLLT1% Degradation @ 1 μM: B (Category B: 50%≤B<75% degradation)

Compound: Cc1c2ccc(C(=O)Nc3cc4[nH]c([C@H]5CCCN5C)cc4cn3)cc2nn1CCCCCCCCNc1cccc2c1C(=O)N(C1CCC(=O)NC1=O)C2=O (stereo partly drawn) [Example 5, 2-(8-((2-(2,6-dioxopiperidin-3-yl)-1,3-dioxoisoindolin-4-yl)amino)octyl)-3-methyl-N-(2-((R)-1-methylpyrrolidin-2-yl)-1H-pyrrolo[3,2-c]pyridin-6-yl)-2H-indazole-6-carboxamide]
- MLLT1% Degradation @ 0.01 μM: B (Category B: 50%≤B<75% degradation)
- MLLT1% Degradation @ 0.1 μM: B (Category B: 50%≤B<75% degradation)
- MLLT1% Degradation @ 1 μM: C (Category C: 25%≤C<50% degradation)

Compound: CN1CCC[C@@H]1c1cc2cnc(NC(=O)c3ccc4c(c3)c(N3CCC(CN5CCN(c6cc7c(cc6F)C(=O)N(C6CCC(=O)NC6=O)C7=O)CC5)CC3)nn4C)cc2[nH]1 (stereo partly drawn) [Example 6, 3-[4-({4-[2-(2,6-dioxopiperidin-3-yl)-6-fluoro-1,3-dioxoisoindol-5-yl]piperazin-1-yl}methyl)piperidin-1-yl]-1-methyl-N-{2-[(2R)-1-methylpyrrolidin-2-yl]-1H-pyrrolo[3,2-c]pyridin-6-yl}indazole-5-carboxamide]
- MLLT1% Degradation @ 0.01 μM: C (Category C: 25%≤C<50% degradation)
- MLLT1% Degradation @ 0.1 μM: B (Category B: 50%≤B<75% degradation)
- MLLT1% Degradation @ 1 μM: A (Category A: A≥75% degradation)

Compound: Cc1c(OCCCCCCCCn2nc(C)c3ccc(C(=O)Nc4cc5[nH]c([C@H]6CCCN6C)cc5cn4)cc32)cccc1N1CCC(=O)NC1=O [Example 9, 1-{8-[3-(2,4-dioxo-1,3-diazinan-1-yl)-2-methylphenoxy]octyl}-3-methyl-N-{2-[(2R)-1-methylpyrrolidin-2-yl]-1H-pyrrolo[3,2-c]pyridin-6-yl}indazole-6-carboxamide]
- MLLT1% Degradation @ 0.01 μM: D (Category D: D<25% degradation)
- MLLT1% Degradation @ 0.1 μM: C (Category C: 25%≤C<50% degradation)
- MLLT1% Degradation @ 1 μM: A (Category A: A≥75% degradation)

Compound: Cc1c(OCCCCCCn2nc(C)c3ccc(C(=O)Nc4cc5[nH]c([C@H]6CCCN6C)cc5cn4)cc32)cccc1N1CCC(=O)NC1=O [Example 10, 1-{6-[3-(2,4-dioxo-1,3-diazinan-1-yl)-2-methylphenoxy]hexyl}-3-methyl-N-{2-[(2R)-1-methylpyrrolidin-2-yl]-1H-pyrrolo[3,2-c]pyridin-6-yl}indazole-6-carboxamide]
- MLLT1% Degradation @ 0.01 μM: C (Category C: 25%≤C<50% degradation)
- MLLT1% Degradation @ 0.1 μM: C (Category C: 25%≤C<50% degradation)
- MLLT1% Degradation @ 1 μM: C (Category C: 25%≤C<50% degradation)

Compound: Cc1nn(CCCCN2CCN(c3ccc4c(c3)C(=O)N(C3CCC(=O)NC3=O)C4=O)CC2)c2cc(C(=O)Nc3cc4[nH]c([C@@H]5CCCN5C)cc4cn3)ccc12 (stereo partly drawn) [Example 20, 1-(4-{4-[2-(2,6-dioxopiperidin-3-yl)-1,3-dioxoisoindol-5-yl]piperazin-1-yl}butyl)-3-methyl-N-{2-[(2S)-1-methylpyrrolidin-2-yl]-1H-pyrrolo[3,2-c]pyridin-6-yl}indazole-6-carboxamide]
- MLLT1% Degradation @ 0.01 μM: C (Category C: 25%≤C<50% degradation)
- MLLT1% Degradation @ 0.1 μM: C (Category C: 25%≤C<50% degradation)
- MLLT1% Degradation @ 1 μM: A (Category A: A≥75% degradation)

Compound: Cc1nn(CCOCCN2CCN(c3cc4c(cc3F)C(=O)N(C3CCC(=O)NC3=O)C4=O)CC2)c2cc(C(=O)Nc3cc4[nH]c([C@H]5CCCN5C)cc4cn3)ccc12 (stereo partly drawn) [Example 24, 1-(2-(2-(4-(2-(2,6-dioxopiperidin-3-yl)-6-fluoro-1,3-dioxoisoindolin-5-yl)piperazin-1-yl)ethoxy)ethyl)-3-methyl-N-(2-((R)-1-methylpyrrolidin-2-yl)-1H-pyrrolo[3,2-c]pyridin-6-yl)-1H-indazole-6-carboxamide]
- MLLT1% Degradation @ 0.1 μM: B (Category B: 50%≤B<75% degradation)
- MLLT1% Degradation @ 1 μM: A (Category A: A≥75% degradation)

Compound: Cc1nn(CCCC2CCN(c3ccc(C(=O)NC4CCC(=O)NC4=O)cc3F)CC2)c2cc(C(=O)Nc3cc4[nH]c([C@H]5CCCN5C)cc4cn3)ccc12 (stereo partly drawn) [Example 28, 1-(3-(1-(4-((2,6-dioxopiperidin-3-yl)carbamoyl)-2-fluorophenyl)piperidin-4-yl)propyl)-3-methyl-N-(2-((R)-1-methylpyrrolidin-2-yl)-1H-pyrrolo[3,2-c]pyridin-6-yl)-1H-indazole-6-carboxamide]
- MLLT1% Degradation @ 0.1 μM: C (Category C: 25%≤C<50% degradation)
- MLLT1% Degradation @ 1 μM: C (Category C: 25%≤C<50% degradation)

Compound: Cc1nn(CCCCCC#Cc2cccc(C(=O)NC3CCC(=O)NC3=O)c2F)c2cc(C(=O)Nc3cc4[nH]c([C@H]5CCCN5C)cc4cn3)ccc12 (stereo partly drawn) [Example 34, 1-(7-(3-((2,6-dioxopiperidin-3-yl)carbamoyl)-2-fluorophenyl)hept-6-yn-1-yl)-3-methyl-N-(2-((R)-1-methylpyrrolidin-2-yl)-1H-pyrrolo[3,2-c]pyridin-6-yl)-1H-indazole-6-carboxamide]
- MLLT1% Degradation @ 0.01 μM: D (Category D: D<25% degradation)
- MLLT1% Degradation @ 0.1 μM: B (Category B: 50%≤B<75% degradation)
- MLLT1% Degradation @ 1 μM: A (Category A: A≥75% degradation)

Compound: Cc1c(C#CCCCCCn2nc(C)c3ccc(C(=O)Nc4cc5[nH]c([C@H]6CCCN6C)cc5cn4)cc32)cccc1C(=O)NC1CCC(=O)NC1=O (stereo partly drawn) [Example 35, 1-(7-(3-((2,6-dioxopiperidin-3-yl)carbamoyl)-2-methylphenyl)hept-6-yn-1-yl)-3-methyl-N-(2-((R)-1-methylpyrrolidin-2-yl)-1H-pyrrolo[3,2-c]pyridin-6-yl)-1H-indazole-6-carboxamide]
- MLLT1% Degradation @ 0.01 μM: C (Category C: 25%≤C<50% degradation)
- MLLT1% Degradation @ 0.1 μM: D (Category D: D<25% degradation)
- MLLT1% Degradation @ 1 μM: B (Category B: 50%≤B<75% degradation)

Compound: Cc1nn(CCCCCCCC#Cc2ccc(C(=O)N[C@H]3CCC(=O)NC3=O)nc2)c2cc(C(=O)Nc3cc4[nH]c([C@H]5CCCN5C)cc4cn3)ccc12 [Example 41, 1-(9-(6-(((S)-2,6-dioxopiperidin-3-yl)carbamoyl)pyridin-3-yl)non-8-yn-1-yl)-3-methyl-N-(2-((R)-1-methylpyrrolidin-2-yl)-1H-pyrrolo[3,2-c]pyridin-6-yl)-1H-indazole-6-carboxamide]
- MLLT1% Degradation @ 0.01 μM: D (Category D: D<25% degradation)
- MLLT1% Degradation @ 0.1 μM: C (Category C: 25%≤C<50% degradation)
- MLLT1% Degradation @ 1 μM: B (Category B: 50%≤B<75% degradation)
